{"source": "patent US9695155B2", "about": "“Herbicidal substituted pyrimidinyloxy benzene compounds” (E. I. DU PONT DE NEMOURS AND COMPANY, priority 2013, dated 2017)", "key": {"wheat, winter": {"test_system": "wheat, winter", "experiment": "Test C preemergence", "format": "in vivo, Triticum aestivum", "conditions": "for Wheat plant response rating: preemergence", "how_it_was_run": "(§1)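 Greenhouse herbicide screen. Pre: seeded loam/sand, sprayed at planting. Post: 1–4 leaf plants (2–18 cm) in peat-based mix. Formulation: solvent mixture + surfactant, non-phytotoxic. Readout: visual % control vs untreated, 13–15 d; dash = not tested.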"}, "giant foxtail": {"test_system": "giant foxtail", "experiment": "Test A postemergence", "format": "in vivo, Setaria faberii", "conditions": "0 to 100 scale where 0 is no effect and 100 is complete control", "how_it_was_run": "(§2)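 Pre- and postemergence greenhouse screen. Soil: loam + sand. Spray carrier: solvent mixture, non-phytotoxic, with surfactant. Post timing at 1–2 leaves, height 2–10 cm. Readout: visual injury on a 0–100 scale roughly 10 days after application, untreated plants as reference.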"}, "blackgrass": {"test_system": "blackgrass", "experiment": "Test A postemergence", "format": "in vivo, Alopecurus myosuroides", "how_it_was_run": "as §2"}, "Italian ryegrass": {"test_system": "Italian ryegrass", "experiment": "Test C postemergence", "format": "in vivo, Lolium multiflorum", "conditions": "for Plant response rating, Ryegrass, Italian: Postemergence, scale 0 to 100 (0 no effect, 100 complete control)", "how_it_was_run": "as §1"}, "pigweed": {"test_system": "pigweed", "experiment": "Test A preemergence", "format": "in vivo, Amaranthus retroflexus", "how_it_was_run": "as §2"}, "johnsongrass": {"test_system": "johnsongrass", "experiment": "Test C preemergence", "format": "in vivo, Sorghum halepense", "conditions": "for Johnsongrass plant response rating: preemergence", "how_it_was_run": "as §1"}, "Heteranthera limosa": {"test_system": "Heteranthera limosa", "experiment": "Test B flooded paddy test", "format": "in vivo", "conditions": "Flood, 250 g ai/ha; 0 to 100 scale where 0 is no effect and 100 is complete control", "how_it_was_run": "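Visual ratings on a 0 to 100 scale, where 100 means complete control, compared treated plants with controls after 13 to 15 days in a greenhouse. Treatment went into paddy water 3 cm deep over the soil, applied to plants at the 2-leaf stage.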"}, "wheat": {"test_system": "wheat", "experiment": "Test A postemergence", "format": "in vivo, Triticum aestivum", "conditions": "0 to 100 scale where 0 is no effect and 100 is complete control", "how_it_was_run": "as §2"}, "kochia [1]": {"test_system": "kochia", "experiment": "Test A preemergence", "format": "in vivo, Kochia scoparia", "how_it_was_run": "as §2"}, "corn": {"test_system": "corn", "experiment": "Test C postemergence", "format": "in vivo, Zea mays", "conditions": "for Plant response rating, Corn: Postemergence", "how_it_was_run": "as §1"}, "kochia [2]": {"test_system": "kochia", "experiment": "Test A postemergence", "format": "in vivo, Kochia scoparia", "conditions": "0 to 100 scale where 0 is no effect and 100 is complete control", "how_it_was_run": "as §2"}, "galium": {"test_system": "galium", "experiment": "Test C preemergence", "format": "in vivo, Galium aparine", "conditions": "for Galium plant response rating: preemergence", "how_it_was_run": "as §1"}, "waterhemp": {"test_system": "waterhemp", "experiment": "Test C preemergence", "format": "in vivo, Amaranthus rudis", "conditions": "for Waterhemp plant response rating: preemergence", "how_it_was_run": "as §1"}, "[3]": {"conditions": "16 g ai/ha, scale 0 to 100 (0 no effect, 100 complete control)"}, "[4]": {"conditions": "62 g ai/ha, scale 0 (no effect) to 100 (complete control)"}, "[5]": {"conditions": "125 g ai/ha, scale 0 (no effect) to 100 (complete control)"}, "[6]": {"conditions": "Preemergence, 31 g ai/ha, scale 0 to 100, 0 no effect, 100 complete control"}, "[7]": {"conditions": "125 g ai/ha, 0 to 100 scale where 0 is no effect and 100 is complete control"}, "[8]": {"conditions": "500 g ai/ha, 0 to 100 scale, 0 no effect, 100 complete control, approx. 10 days"}}}
{"smiles": "CC(C)c1cnn(-c2c(C#N)cccc2Oc2ncc(Cl)cn2)c1", "note": "[Compound 85]", "values": [{"measurement": "Wheat plant response rating", "setting": "wheat, winter; [3]", "result": 0}, {"measurement": "Wheat plant response rating", "setting": "wheat, winter; [4]", "result": 0}, {"measurement": "Wheat plant response rating", "setting": "wheat, winter; [5]", "result": 5}, {"measurement": "Plant response rating, Wheat", "setting": "wheat, winter; [6]", "result": 0}, {"measurement": "Plant response rating, Foxtail, Giant", "setting": "giant foxtail; 125 g ai/ha", "result": 70}, {"measurement": "Plant response rating, Foxtail, Giant", "setting": "giant foxtail; 500 g ai/ha", "result": 90}, {"measurement": "Plant response rating, Blackgrass", "setting": "blackgrass; [7]", "result": 70}, {"measurement": "Plant response rating, Blackgrass", "setting": "blackgrass; 500 g ai/ha, 0 to 100 scale, 0 no effect, 100 complete control", "result": 80}, {"measurement": "Plant response rating (0 to 100), Ryegrass, Italian", "setting": "Italian ryegrass; 125 g ai/ha, postemergence", "result": 5}, {"measurement": "Plant response rating, Ryegrass, Italian", "setting": "Italian ryegrass; 31 g ai/ha, 13 to 15 days", "result": 0}, {"measurement": "Plant response rating, Ryegrass, Italian", "setting": "Italian ryegrass; 62 g ai/ha", "result": 0}, {"measurement": "Plant response rating, Pigweed", "setting": "pigweed; [7]", "result": 100}, {"measurement": "Pigweed plant response rating", "setting": "pigweed; [8]", "result": 100}, {"measurement": "Johnsongrass plant response rating", "setting": "johnsongrass; [3]", "result": 15}, {"measurement": "Johnsongrass plant response rating", "setting": "johnsongrass; [4]", "result": 55}, {"measurement": "Johnsongrass plant response rating", "setting": "johnsongrass; [5]", "result": 85}, {"measurement": "Plant response rating, Johnsongrass", "setting": "johnsongrass; [6]", "result": 20}, {"measurement": "Plant response rating, Ducksalad", "setting": "Heteranthera limosa", "result": 30}, {"measurement": "Plant response rating, Wheat", "setting": "wheat; 125 g ai/ha", "result": 0}, {"measurement": "Plant response rating, Wheat", "setting": "wheat; 500 g ai/ha", "result": 70}, {"measurement": "Plant response rating, Kochia", "setting": "kochia [1]; [7]", "result": 80}, {"measurement": "Kochia plant response rating", "setting": "kochia [1]; [8]", "result": 100}, {"measurement": "Corn plant response rating", "setting": "corn; 16 g ai/ha, postemergence, visual rating, scale 0 to 100 (0 no effect, 100 complete control), 13 to 15 days", "result": 5}, {"measurement": "Plant response rating (0 to 100), Corn", "setting": "corn; 125 g ai/ha, postemergence", "result": 10}, {"measurement": "Plant response rating, Corn", "setting": "corn; 31 g ai/ha, scale 0 to 100 (0 no effect, 100 complete control), 13 to 15 days", "result": 5}, {"measurement": "Plant response rating, Corn", "setting": "corn; 62 g ai/ha, scale 0 to 100 (0 no effect, 100 complete control)", "result": 10}, {"measurement": "Plant response rating, Kochia", "setting": "kochia [2]; 125 g ai/ha", "result": 70}, {"measurement": "Plant response rating, Kochia", "setting": "kochia [2]; 500 g ai/ha", "result": 100}, {"measurement": "Galium plant response rating", "setting": "galium; [3]", "result": 0}, {"measurement": "Galium plant response rating", "setting": "galium; [4]", "result": 50}, {"measurement": "Galium plant response rating", "setting": "galium; [5]", "result": 85}, {"measurement": "Plant response rating, Galium", "setting": "galium; [6]", "result": 0}, {"measurement": "Waterhemp plant response rating", "setting": "waterhemp; [3]", "result": 55}, {"measurement": "Waterhemp plant response rating", "setting": "waterhemp; [4]", "result": 100}, {"measurement": "Waterhemp plant response rating", "setting": "waterhemp; [5]", "result": 100}, {"measurement": "Plant response rating, Waterhemp", "setting": "waterhemp; [6]", "result": 85}]}
